Values joined by “and” are separate entries in the source; they are usually repeats but may differ in a detail not shown here. Identical values can stand only once.
Assay: Kinetic studies of the plasma concentration in animals with different crystalline forms of AD (oral, monkeys; adefovir measured in serum by HPLC)
Format: in vivo, Macaques
Method: The experiment was carried out by orally administering to monkeys the drugs in order to investigate the in vivo absorption of two crystalline forms of AD: the novel crystalline AD of the present invention produced by Tianjin Kinsly pharmaceutical R & D Co. Ltd. and crystalline form I of AD prepared according to the method of GILEAD SCIENCES INC. The experiment provides useful clinical references for the application of novel crystalline AD.
Tablets of novel crystalline form of AD, white, each of which contains 10 mg of adefovir, Tianjin Kinsly pharmaceutical R&D Co. Ltd., batch number 020320.
Tablets of AD crystalline form I, white, each of which contains 10 mg of adefovir, Tianjin Kinsly pharmaceutical R&D Co. Ltd., batch number 020225.
Macaques, weighing from 5 kg to 8 kg (certificate No: 2001-03, approved by Beijing Forestry Administration in the document of [2001] 83) were provided by Xie'er Animal Health Caring Science and Technology Co. Ltd (Beijing, P. R. China).
As the pro-drug of adefovir, AD is the bis-pivaloyloxymethyl ester of adefovir, which increases the in vivo bioavailability of orally administered adefovir. AD can be rapidly metabolized into PMEA, rendering it undetectable in blood. Thus the concentration of its parent compound was measured.
Mobile phase: 0.2% phosphoric acid-methanol-B7 (97:3:0.5) degassed and filtrated through 0.45 μm milipore filter.
Stationary phase: C18-column (4.6×250 mm) packed with 5μ fillers, Tianjin Tianhe Chromatogram Inc, the column temperature from 18° C. to 22° C.
Detection: the UV detection wavelength λ=260 nm (0.01AUFS)
A given volume of serum was taken and an equal volume of 10% trichloroacetic acid was added. The mixture was shaken thoroughly and kept still for more than 30 min to precipitate the proteins, then centrifuged at 10000 rpm for 2 min. The precipitates were separated and 30 μL of the supernat was removed for injection.
The experiment was started one week after intestinal worms were dispelled from the animals. Eight animals were randomly assigned into two groups, each consisting of four animals. The animals were fasted for 12 h and were orally administered the novel crystalline form of AD for one group or crystalline form I of AD for another group at a dose of 20 mg/kg together with 200 ml of water. 2 hours after administration, the animals were fed in a fixed quantity. 2.0 ml samples of whole blood were collected from the elbow veins before administration and 10, 20, 30, 45 min and 1, 2, 4, 6, 8, 12, and 24 h after administration. The serum was separated and freeze-stored for measurement. A cross-experiment was done similarly 2 weeks later.
The pharmacokinetic parameters were calculated based on the plasma concentrations at different time points. The time to peak concentration (Tpeak) and the maximum concentration (Cmax) used the measured value. The terminal phase elimination rate constant (Ke) was obtained by fitting the linear section of the curve of logarithm of the plasma concentration of drug in terminal phase versus time and the terminal phase clearance half life time (T1/2) was calculated by dividing 0.693 by Ke. AUC0-t was calculated according to the trapezoid rule.
Apparent volume of distribution (Vd)=dosage/(AUCXKe);
Total Clearance (CL)=dosage/AUC.
Comparison of the data of the two crystalline form: Data of Cmax, Ke, T1/2 and AUC0-t were statistically processed by t test, while Tpeak was processed by non-parametric test. In addition, Comparison of bio-equivalence was carried out based on Cmax and AUC0-t by using two one-sided t test.
Eight macaques were assigned into two groups, group for the novel crystalline form and the group for crystalline form I. The animals were administered according to an open randomized crossover scheme. Afterward, adefovir concentrations in serum were measured at the predetermined time points. […]

[1] = adefovir, oral 20 mg/kg, macaques, average of 8 animals (ASD row)
[2] = adefovir, oral 20 mg/kg, macaques, individual animal No. 1-8, listed as Crystalline form I, 20 mg/kg

Which “Adefovir concentrations in serum (Plasma concentrations versus time), average” value (0.167 h after oral administration, 20 mg/kg, macaques, average of 8 animals (ASD row)) does the source give for `CC(C)(C)C(=O)OCOP(=O)(COCCn1cnc2c(N)ncnc21)OCOC(=O)C(C)(C)C` [crystalline form I, reference compound] here?
The value was 77.0 ng/mL.

What about the “Adefovir concentrations in serum (Plasma concentrations versus time)” value (0.167 h after oral administration, 20 mg/kg, macaques, individual animal No. 1-8, 20 mg/kg) of the same compound?
The value was 66.6 ng/mL and 90.1 ng/mL.

What about the “Adefovir concentrations in serum (Plasma concentrations versus time), average” value (0.333 h after oral administration, 20 mg/kg, macaques, average of 8 animals (ASD row)) of the same compound?
Its value is 235.4 ng/mL.

What about the “Adefovir concentrations in serum (Plasma concentrations versus time)” value (0.333 h after oral administration, 20 mg/kg, macaques, individual animal No. 1-8, 20 mg/kg) of the same compound?
The value was 148.0 ng/mL.

And the “Adefovir concentrations in serum (Plasma concentrations versus time), average” value (0.5 h after oral administration, 20 mg/kg, macaques, average of 8 animals (ASD row))?
The value was 546.7 ng/mL.

And the “Adefovir concentrations in serum (Plasma concentrations versus time)” value (0.5 h after oral administration, 20 mg/kg, macaques, individual animal No. 1-8, 20 mg/kg)?
Its value is 397.9 ng/mL.

What about the “Adefovir concentrations in serum (Plasma concentrations versus time), average” value (0.75 h after oral administration, 20 mg/kg, macaques, average of 8 animals (ASD row)) of the same compound?
Its value is 350.9 ng/mL.

What about the “Adefovir concentrations in serum (Plasma concentrations versus time)” value (0.75 h after oral administration, 20 mg/kg, macaques, individual animal No. 1-8, 20 mg/kg) of the same compound?
Its value is 305.2 ng/mL.

What about the “Adefovir concentrations in serum (Plasma concentrations versus time), average” value (1 h after oral administration, 20 mg/kg, macaques, average of 8 animals (ASD row)) of the same compound?
The value was 285.2 ng/mL.

And the “Adefovir concentrations in serum (Plasma concentrations versus time)” value (1 h after oral administration, 20 mg/kg, macaques, individual animal No. 1-8, 20 mg/kg)?
The value was 196.6 ng/mL.

And the “Adefovir concentrations in serum (Plasma concentrations versus time), average” value (2 h after oral administration, 20 mg/kg, macaques, average of 8 animals (ASD row))?
Its value is 230.5 ng/mL.

What about the “Adefovir concentrations in serum (Plasma concentrations versus time)” value (2 h after oral administration, 20 mg/kg, macaques, individual animal No. 1-8, 20 mg/kg) of the same compound?
The value was 161.3 ng/mL.

What about the “Adefovir concentrations in serum (Plasma concentrations versus time), average” value (4 h after oral administration, 20 mg/kg, macaques, average of 8 animals (ASD row)) of the same compound?
Its value is 177.5 ng/mL.

What about the “Adefovir concentrations in serum (Plasma concentrations versus time)” value (4 h after oral administration, 20 mg/kg, macaques, individual animal No. 1-8, 20 mg/kg) of the same compound?
Its value is 89.3 ng/mL.

What about the “Adefovir concentrations in serum (Plasma concentrations versus time), average” value (6 h after oral administration, 20 mg/kg, macaques, average of 8 animals (ASD row)) of the same compound?
Its value is 146.8 ng/mL.

And the “Adefovir concentrations in serum (Plasma concentrations versus time)” value (6 h after oral administration, 20 mg/kg, macaques, individual animal No. 1-8, 20 mg/kg)?
Its value is 102.0 ng/mL.

And the “Adefovir concentrations in serum (Plasma concentrations versus time), average” value (8 h after oral administration, 20 mg/kg, macaques, average of 8 animals (ASD row))?
The value was 116.7 ng/mL.

What about the “Adefovir concentrations in serum (Plasma concentrations versus time)” value (8 h after oral administration, 20 mg/kg, macaques, individual animal No. 1-8, 20 mg/kg) of the same compound?
The value was 82.9 ng/mL.

What about the “Adefovir concentrations in serum (Plasma concentrations versus time), average” value (12 h after oral administration, 20 mg/kg, macaques, average of 8 animals (ASD row)) of the same compound?
The value was 86.0 ng/mL.

And the “Adefovir concentrations in serum (Plasma concentrations versus time)” value (12 h after oral administration, 20 mg/kg, macaques, individual animal No. 1-8, 20 mg/kg)?
The value was 70.1 ng/mL and 72.6 ng/mL.

What about the “Adefovir concentrations in serum (Plasma concentrations versus time), average” value (24 h after oral administration, 20 mg/kg, macaques, average of 8 animals (ASD row)) of the same compound?
Its value is 44.3 ng/mL.

What about the “Adefovir concentrations in serum (Plasma concentrations versus time)” value (24 h after oral administration, 20 mg/kg, macaques, individual animal No. 1-8, 20 mg/kg) of the same compound?
The value was 36.8 ng/mL and 56.6 ng/mL.

What about the Vd (adefovir apparent volume of distribution, oral 20 mg/kg, macaques, individual animal No. 1-8, 20 mg/kg) of the same compound?
The Vd was 125.6 L and 107.3 L and 85.8 L and 95.0 L and 145.1 L and 76.6 L and 158.8 L and 99.9 L.

What about the “average AUCO-T” value (adefovir, oral 20 mg/kg) of the same compound?
Its value is 2723.82 ng·h/mL.

What about the “average Tpeak” value (adefovir, oral 20 mg/kg) of the same compound?
The value was 0.53 h.

What about the “average apparent volume of distribution (Vc)” value (adefovir, oral 20 mg/kg) of the same compound?
Its value is 17.50 L.

And the “average elimination half-life time” value (adefovir, oral 20 mg/kg)?
Its value is 10.5 h.

And the average peak concentration (adefovir, oral 20 mg/kg)?
The average peak concentration was 551.21 ng/mL.

And the “Cmax, average” value (adefovir, oral 20 mg/kg, macaques, average of 8 animals)?
Its value is 551.21 ng/mL.

And the “CL, average” value [1]?
Its value is 7723.2 mL/h.

And the “Ke, average” value [1]?
Its value is 0.072 L/h.

What about the “T1/2, average” value [1] of the same compound?
The value was 10.5 h.

And the “Tpeak, average” value [1]?
The value was 0.53 h.

And the “Vd, average” value [1]?
The value was 117.0 L.

What about the “AUC0-t, average” value (adefovir, oral 20 mg/kg, macaques, average of 8 animals, listed as Crystalline form I, 20 mg/kg) of the same compound?
The value was 2723.8 ng·h/mL.

What about the “AUC0-t, average” value (adefovir, oral 20 mg/kg, macaques, average of 8 animals, listed as Form I, 20 mg/kg) of the same compound?
Its value is 2724 ng·h/mL.

And the AUC0-t [2]?
Its AUC0-t is 2214.1 ng·h/mL and 2624.4 ng·h/mL and 2188.0 ng·h/mL and 3647.5 ng·h/mL and 3379.4 ng·h/mL and 3452.3 ng·h/mL and 2317.8 ng·h/mL and 1967.0 ng·h/mL.

What about the Cmax [2] of the same compound?
The Cmax was 402.2 ng/mL and 785.4 ng/mL and 366.2 ng/mL and 698.1 ng/mL and 915.4 ng/mL and 432.2 ng/mL and 412.3 ng/mL and 397.9 ng/mL.

And the T1/2 [2]?
Its T1/2 is 9.6 h and 9.8 h and 6.5 h and 12.0 h and 17.0 h and 9.2 h and 12.8 h and 6.8 h.

And the Tpeak [2]?
The Tpeak was 0.5 h (7×) and 0.75 h.

And the Cmax (adefovir, oral 20 mg/kg, macaques, individual animal No. 1-8, listed as Form I, 20 mg/kg)?
The Cmax was 689.1 ng/mL.

From patent US7417036B2, “Crystal form of adefovir dipivoxil and its preparation” (Tianjin Kinsly Pharmaceutical Co. Ltd., priority 2002, dated 2008)
